According to US20120202787A1, “Novel Heteroaryl Imidazoles And Heteroaryl Triazoles As Gamma-Secretase Modulators” (Pfizer Inc., priority 2009, published 2012):

System: γ-secretase (production of amyloid beta protein Aβ (1-42))
Assay: Cell-based γ-secretase assay with ELISA readout (Aβ (1-42) production)
Set-up: species or system human WT-APP overexpressing CHO cells
Conditions: Geometric mean of at least 2 determinations; Table 3; read-out: Aβ 42 IC50 (μM)*
Protocol: Cell-Based γ-Secretase Assay with ELISA Readout
The ability of compounds to modulate production of amyloid beta protein Aβ (1-42) was determined using human WT-APP overexpressing CHO cells. Cells were plated at 22,000 cells/100 μL well in 96 well tissue culture treated, clear plates (Falcon) in DMEM/F12 based medium and incubated for 24 hours at 37° C. Compounds for testing were diluted in 100% DMSO to achieve an eleven points, half log, dose response for IC50 determinations. Compounds were added in fresh medium to achieve 1% final DMSO. Appropriate vehicle and inhibitor controls were added to obtain maximum and minimum inhibition values for the assay before the plates were incubated for about 24 hours at 37° C.
Coating of ELISA assay plates was initiated by addition of 50 μL/well of an in-house Aβ (1-42) specific antibody at (4 μg/mL) in 0.1 M NaHCO3 (pH 9.0) into black 384-well Maxisorp® plates (Nunc) and incubated overnight at 4° C. The capture antibody was then aspirated from the ELISA assay plates and 100 μL/well of Blocking Buffer (Dulbecco's PBS, 1.5% BSA (Sigma A7030)) added. Ambient temperature incubation was allowed to proceed for a minimum of two hours before washing 2×100 μL with Wash Buffer (Dulbecco's PBS, 0.05% Tween 20). Assay Buffer (Dulbecco's PBS, 1.0% BSA (Sigma A7030), 0.05% Tween 20) 20 μL/well was then added.
After incubation overnight at 37° C., 5% CO2, 40 μL (in duplicate) of experimental conditioned media were transferred into wells of the blocked ELISA plates containing the capture antibody, followed by overnight incubation at 4° C. Cell toxicity was measured in the corresponding cells after removal of the media for the Aβ (1-42) assay by a colorimetric cell proliferation assay (CellTiter 96® AQueous One Solution Cell Proliferation Assay, Promega) according to the manufacturer's instructions.
After overnight incubation of the ELISA assay plates at 4° C., unbound Aβ peptides were removed thorough (4×100 μL) washes with Wash Buffer. Europium (Eu) labeled (custom labeled, Perkin Elmer) Aβ (1-16) 6e10 Monoclonal Antibody (Covance #SIG-39320 was added, (50 μL /well Eu-6e10 @ 1:5000, 20 uM EDTA) in Assay Buffer. Incubation at ambient temperature for a minimum of 2 hours was followed by (4×100 μL) washes with Wash Buffer, before 50 μL/well of Delfia Enhancement Solution (Perkin Elmer) was added. Following a one hour ambient temperature incubation, the plates were read on an EnVision plate reader (Perkin Elmer) using standard DELFIA TRF settings. Data analysis including inhibitory IC50 determination was performed using nonlinear regression fit analysis (in-house software) and the appropriate plate mean values for the maximum and minimum inhibition controls.

Row | Structure (SMILES) | IC50 [µM]
1 | COc1nc(C(=O)N2CC(COc3cccc4ccccc34)C2)ccc1-n1cnc(C)c1 [Example 48, 2-methoxy-3-(4-methyl-1H-imidazol-1-yl)-6-({3-[(1-naphthyloxy)methyl]azetidin-1-yl}carbonyl) pyridine] | 0.096
2 | COc1nc(C(=O)N[C@H]2COc3ccc(Cl)cc32)ccc1-n1cnc(C)c1 [Example 53, N-[(3R)-5-chloro-2,3-dihydro-1-benzofuran-3-yl]-6-methoxy-5-(4-methyl-1H-imidazol-1-yl)pyridine-2-carboxamide] | 0.373
3 | COc1nc(C(=O)NC2COc3ccc(Cl)c(C)c32)ccc1-n1cnc(C)c1 (stereo not drawn) [Example 51, N-(5-chloro-4-methyl-2,3-dihydro-1-benzofuran-3-yl)-6-methoxy-5-(4-methyl-1H-imidazol-1-yl)pyridine-2-carboxamide] | 0.234

Same assay, conditions: human WT-APP overexpressing CHO cells; Aβ (1-42) ELISA; about 24 hours at 37° C.; free base or salt; read-out: Aβ 42B IC50 (μM) (Geometric Mean of 2-8 Determinations)

Row | Structure (SMILES) | IC50 [µM]
4 | COc1nc(C(=O)N2CC[C@@H](Oc3ccccc3C(F)(F)F)C2)cnc1-n1cnc(C)c1 [Example 9, 3-methoxy-2-(4-methyl-1H-imidazol-1-yl)-5-({(3R)-3-[2-(trifluoromethyl)-phenoxy]pyrrolidin-1-yl}carbonyl)pyrazine] | 0.643
5 | COc1nc(C(=O)NCC(C)(C)c2ccc(F)cc2)ccc1-n1cnc(C)c1 [Example 29, N-[2-(4-fluorophenyl)-2-methylpropyl]-6-methoxy-5-(4-methyl-1H-imidazol-1-yl)pyridine-2-carboxamide] | 0.502
6 | COc1nc(C(=O)NCC2(c3ccc(F)cc3)CC2)ccc1-n1cnc(C)c1 [Example 5, N-{[1-(4-Fluorophenyl)cyclopropyl]methyl}-6-methoxy-5-(4-methyl-1H-imidazol-1-yl)pyridine-2-carboxamide] | 0.34
7 | COc1nc(C(=O)NCc2cccc(C(F)(F)F)c2)cnc1-n1cnc(C)c1 [Example 4, 6-Methoxy-5-(4-methyl-1H-imidazol-1-yl)-N-[3-(trifluoromethyl)benzyl]pyrazine-2-carboxamide] | 1.75
8 | COc1cc(C(=O)NCC2(c3ccc(F)cc3)CC2)cnc1-n1cnc(C)c1 [Example 45, N-{[1-(4-fluorophenyl)-cyclopropyl]methyl}-5-methoxy-6-(4-methyl-1H-imidazol-1-yl)nicotinamide] | 2.23
9 | COc1nc(C(=O)NCC2(c3ccc(F)cc3)CC2)cnc1-n1cnc(C)c1 [Example 6, N-{[1-(4-Fluorophenyl)cyclopropyl]methyl}-6-methoxy-5-(4-methyl-1H-imidazol-1-yl)pyrazine-2-carboxamide] | 1.3
10 | COc1nc(C(=O)N[C@H]2CCc3ccc(Cl)cc32)ccc1-n1cnc(C)c1 [Example 40, N-[(1S)-6-chloro-2,3-dihydro-1H-inden-1-yl]-6-methoxy-5-(4-methyl-1H-imidazol-1-yl)pyridine-2-carboxamide] | 0.259
11 | COc1nc(C(=O)NCc2ccc(F)c(C3CC3)c2)ccc1-n1cnc(C)c1 [Example 42, N-(3-cyclopropyl-4-fluorobenzyl)-6-methoxy-5-(4-methyl-1H-imidazol-1-yl)pyridine-2-carboxamide] | 0.319
12 | COc1nc(C(=O)NCc2ccc(OC(F)(F)F)cc2)ccc1-n1cnc(C)c1 [Example 31, 6-methoxy-5-(4-methyl-1H-imidazol-1-yl)-N-[4-(trifluoromethoxy)benzyl]-pyridine-2-carboxamide] | 1.01
